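Compound exposure: 48 hours, 5 concentrations, 96-well plates. TGI is the concentration that stops growth completely.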

Experimental findings from PubChem BioAssay (NCI) are described below.

Some test systems named below: CAKI-1 renal; HCC-2998 colon; LOX IMVI melanoma; NCI-H226 lung; NCI-H23 lung; SF-268 CNS; SF-295 CNS; SK-MEL-2 melanoma; SN12C renal; SNB-75 CNS; TK-10 renal; CCRF-CEM leukemia; OVCAR-8 ovarian; UACC-62 melanoma; EKVX NSCLC.
Assay in all cases: NCI-60 cell line screen, 48 h

With `CN1NC(c2ccccc2)=C(C#N)C(=O)CC1c1ccc(Br)cc1` (stereo not given), the TGI with CAKI-1 renal is over 100 µM; in the assay on HCC-2998 colon it was over 100 µM; with LOX IMVI melanoma it was over 100 µM; with NCI-H226 lung it was 4.24 µM; in the assay with NCI-H23 lung it was over 100 µM; with SF-268 CNS it was over 100 µM. Further, the TGI with SF-295 CNS was 91.2 µM; in the assay on SK-MEL-2 melanoma, 70 µM; in the assay on SN12C renal, over 100 µM; with SNB-75 CNS it was 46.9 µM; with TK-10 renal it was over 100 µM.
Take `OC12c3ccccc3C1CCCCCC21OCCCO1` (stereo not given): the TGI in the assay on CAKI-1 renal, in the assay on CCRF-CEM leukemia, with LOX IMVI melanoma, in the assay with NCI-H226 lung, with NCI-H23 lung and in the assay on OVCAR-8 ovarian was over 100 µM each time. The TGI in the assay with SF-268 CNS, in the assay on SF-295 CNS, in the assay with SK-MEL-2 melanoma, in the assay on SN12C renal, with SNB-75 CNS and in the assay with TK-10 renal was over 100 µM in each case. The TGI in the assay on UACC-62 melanoma was over 100 µM.
`COc1cc2c(c(OC)c1OC)-c1ccc(SC)c(=O)cc1C(CC(=O)Oc1cccc(F)c1)C2` (stereo not given): the TGI in the assay on CAKI-1 renal was over 73.7 µM; in the assay on CCRF-CEM leukemia it was over 31.9 µM; in the assay on EKVX NSCLC, over 100 µM; in the assay with HCC-2998 colon, 0.426 µM; in the assay on LOX IMVI melanoma, 10.8 µM; in the assay with NCI-H226 lung it was 0.794 µM. Moreover, the TGI in the assay with NCI-H23 lung was 0.805 µM; with SF-268 CNS it was over 72.5 µM; with SF-295 CNS, over 100 µM; with SK-MEL-2 melanoma it was 9.57 µM; in the assay with SN12C renal it was 16.6 µM; with TK-10 renal, over 100 µM. In the assay on UACC-62 melanoma, this compound showed a TGI of 1.07 µM.
Turning to `O=C(c1ccco1)N(C(=S)N1CCN(c2ccccn2)CC1)c1ccccc1`, the TGI with CAKI-1 renal, with CCRF-CEM leukemia, with LOX IMVI melanoma, with NCI-H226 lung, with NCI-H23 lung and in the assay on OVCAR-8 ovarian was over 100 µM in each case. The TGI in the assay on SF-268 CNS, in the assay with SF-295 CNS, with SK-MEL-2 melanoma, in the assay on SN12C renal, in the assay with SNB-75 CNS and with TK-10 renal was over 100 µM throughout. In addition, in the assay with UACC-62 melanoma, the TGI is over 100 µM.
In the case of `CC(=O)NC1=C(N)C(=O)c2ccccc2C1=O`, the TGI in the assay on CAKI-1 renal was over 100 µM; in the assay with CCRF-CEM leukemia it was over 100 µM; in the assay on EKVX NSCLC it was over 100 µM; with HCC-2998 colon, over 100 µM; with LOX IMVI melanoma, 28.6 µM; in the assay on NCI-H23 lung it was over 100 µM. Moreover, the TGI in the assay on OVCAR-8 ovarian, in the assay with SF-268 CNS, in the assay on SF-295 CNS, in the assay on SK-MEL-2 melanoma, in the assay with SN12C renal and with SNB-75 CNS was over 100 µM in each case. For the same compound, the TGI in the assay with TK-10 renal and with UACC-62 melanoma was over 100 µM in each case.
`COC(=O)CCC(=O)N1CC1C` (stereo not given): the TGI with CAKI-1 renal, in the assay on CCRF-CEM leukemia, in the assay with EKVX NSCLC, in the assay with HCC-2998 colon, with LOX IMVI melanoma and in the assay with NCI-H226 lung was over 100 µM throughout. Moreover, the TGI in the assay with NCI-H23 lung, in the assay with OVCAR-8 ovarian, in the assay on SF-268 CNS, in the assay with SF-295 CNS, with SK-MEL-2 melanoma and in the assay on SN12C renal was over 100 µM throughout. Further, the TGI in the assay on SNB-75 CNS, in the assay with TK-10 renal and in the assay with UACC-62 melanoma was over 100 µM each time.
For the compound `OC12CCC3(O)c4ccccc4C3C1c1ccccc12` (stereo not given), the TGI with CCRF-CEM leukemia, in the assay on EKVX NSCLC, in the assay on LOX IMVI melanoma, in the assay on NCI-H226 lung, in the assay on NCI-H23 lung and with OVCAR-8 ovarian was over 100 µM in each case. The TGI in the assay with SF-268 CNS, with SF-295 CNS, in the assay on SK-MEL-2 melanoma, in the assay with SN12C renal, in the assay with SNB-75 CNS and in the assay on TK-10 renal was over 100 µM throughout. In the assay on UACC-62 melanoma, the TGI was over 100 µM.
For the compound `CCn1c(CSc2nc(-c3ccccc3)c(-c3ccccc3)[nH]2)n[nH]c1=S`, the TGI with CCRF-CEM leukemia, in the assay with EKVX NSCLC, with HCC-2998 colon, in the assay with LOX IMVI melanoma, with NCI-H226 lung and in the assay with NCI-H23 lung was over 100 µM in each case. In addition, the TGI in the assay with OVCAR-8 ovarian, in the assay with SF-268 CNS, with SF-295 CNS, in the assay on SK-MEL-2 melanoma, with SN12C renal and in the assay with SNB-75 CNS was over 100 µM each time. The compound further displayed a TGI in the assay on TK-10 renal of over 100 µM.
Turning to `C=CCn1c(=N)/c(=C(\N)O)s/c1=C1/SC(=S)N(c2ccc(C)cc2)C1=O`, the TGI in the assay on CCRF-CEM leukemia, in the assay on NCI-H226 lung, in the assay with NCI-H23 lung, with OVCAR-8 ovarian, with SF-268 CNS and in the assay with SF-295 CNS was over 100 µM in each case. For the same compound, the TGI with SK-MEL-2 melanoma was over 100 µM; with SNB-75 CNS, 44.6 µM; in the assay with TK-10 renal, over 100 µM; in the assay on UACC-62 melanoma it was over 100 µM.
Consider `COc1cc(C2c3cc4c(cc3[C@@H](N(C)c3ccc(N(C)C)cc3)C3COC(=O)C23)OCO4)cc(OC)c1O` (stereo not given in full), for which the TGI in the assay on CAKI-1 renal was 25 µM; with CCRF-CEM leukemia, 35.5 µM; in the assay with EKVX NSCLC it was 44.2 µM; in the assay with HCC-2998 colon it was 20.8 µM; in the assay with LOX IMVI melanoma, 16 µM; in the assay on NCI-H226 lung it was 0.625 µM. Further, the TGI was 4.92 µM with NCI-H23 lung; over 59.8 µM with OVCAR-8 ovarian; 6.85 µM with SF-268 CNS; 0.325 µM in the assay with SF-295 CNS; 16.9 µM in the assay with SK-MEL-2 melanoma; 18.1 µM in the assay with SN12C renal. The results for the TGI in the assay with SNB-75 CNS, in the assay with TK-10 renal and in the assay on UACC-62 melanoma were 42.3 µM, 33.1 µM and 23.1 µM, respectively.
